These results are taken from patent US7309497B2, “Injectable pharmaceutical composition for systematic administration of pharmacologically active ingredients” (Schwarz Pharma AG, priority 2000, dated 2007).

For series [1] the following is noted: in vivo; cited from earlier work.
For series [2] the following is noted: in vivo; cited from earlier work. This is another data set of the same source.
For series [3] the following is noted: cited from earlier work.
The conditions of series [4]: subcutaneous administration; tests with animals; cited from earlier work.
The conditions of series [5]: intravenously injected aqueous solutions; tests with animals; cited from earlier work.
A short description of series [6]: Bioavailability and release of N-0923 from the depot composition per the invention. Format: in vivo. An excerpt:
The composition according to the invention is particularly preferred for the administration of N-0923 hydrochloride, and especially so in a formulation with crystalline N-0923 hydrochloride. The latter can be produced for instance as described in U.S. Pat. No. 4,564,628.

For series [7] the following is noted: distinct first-pass effect; cited from earlier work.

Read-outs that look alike come from different tables or passages of the source.

In the case of `O=c1[nH]cc(F)c(=O)[nH]1` [5-fluorouracil], in series [1], the half-time value is 10 to 20 min.

proinsulin C-peptide: the half-time value entry in series [2] is listed as “about 30 minutes”.

For `N[C@@H](Cc1ccc(O)c(O)c1)C(=O)O` [levodopa], in series [3], the “half-time in the plasma” value is 1 to 3 h.

A word on the bioavailability: it is dose-corrected exposure relative to a reference, in per cent. `CCCN(CCc1cccs1)[C@H]1CCc2c(O)cccc2C1` [N-0923, S(−)-2-(N-propyl-N-2-thienylerhyl-amino)-5-hyroxytetralin]: the half-time value in series [4] is 60 to 70 min. For the same molecule, in series [5], the half-time value is 52 min. In addition, in series [6] (depot composition), the “relationship of plasma agent levels to the dose introduced in the body” value was “linear relationship” and the “time over which the active agent is released from the depots in the body in a therapeutically effective amount” value is “over 48 hours”. Further, in series [6] (plasma, depot composition with N-0923, read-out: bioavailability of the pharmaceutical composition per the invention), the bioavailability was ~70%. The “bioavailability after oral administration” value in series [7] was “about 0.5%”.
